The source of these data is US7776572B2, “Method for reducing loss of enzyme activity during storage” (Corning Incorporated, priority 1996, dated 2010).

One experiment relates to IgG protein. The experiment can be described thus: In-mold coating of 24-well polystyrene plates, protein binding by colloidal gold staining. Conditions: 1% isopropanol solution. As to the method:
The in-mold coating aspects of the invention were tested by molding 24-well polystyrene plates. […] The 0.01% concentration was estimated to produce less than one monolayer of surfactant on the finished product, while the 0.1% concentration produced about 7 monolayers. The surfactant was applied to the mold using a Crown sprayer (Crown Industrial Products, Hebron, Ill.; Catalog #8011), which produces a sufficiently fine spray of droplets to uniformly coat the mold. The mold was sprayed before each part was made.

In another experiment the test system is MDCK cells. The experiment in a line: MDCK cell attachment to coated polystyrene 24-well plates. Conditions: coated PS 24-well, gamma sterilized, media with 5% FBS, two days, visual. It counts as cell-based. As to the method: The procedures used were as follows. Polystyrene 24-well plates were coated with the non-ionic surfactants listed in Table 5 in accordance with the procedures described in Materials and Methods. Uncoated plates were used as a control. For comparison, plates with a covalently attached acrylamide coating (Corning Costar Catalog #2500) and with a stearic acid coating were also tested. The stearic acid coating was applied in the same manner as the non-ionic surfactants again using a 0.1% (w/v) solution.
The plates were gamma sterilized at 1.5 Mrad and then inoculated with 5.6×10^4 MDCK […] per well in 1 ml of complete media containing 5% FBS (Fetal Bovine Serum). Incubation was carried out at 37° C. in a 5% CO2 atmosphere for two days. The plates were fixed and stained, and cell attachment was noted. Following this, the wells were stained using the colloidal gold technique to detect bound protein. Only visual observations were made.
Experiments were also performed with cells suspended in serum. The cells used in these experiments were MDCK cells. The surfactants used were the same as used in Table 5. Again, reduced binding of the cells to surfaces treated with a non-ionic surfactant was observed.

The next experiment concerns bound protein. The experiment in a line: Colloidal gold staining of bound protein after MDCK culture in media containing 5% FBS, visual. Conditions: colloidal gold after cell culture, visual observation. The gist of the method:
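Polystyrene wells coated with non-ionic surfactants, gamma-sterilized at 1.5 Mrad, seeded with 5.6×10^4 MDCK cells per well in medium with 5% FBS and cultured 2 days at 37 °C, 5% CO2. After fixing, bound protein detected by colloidal gold staining; visual assessment only.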

A further experiment deals with IgG (horse). The experiment in a line: IgG binding to 24-well plates, surfactant dried or not dried before H2O rinse, colloidal Au. To be noted: 0.5% surfactant in H2O/isopropanol (90/10). As to the method: Duplicate 24-well plates were prepared as follows. Individual wells were filled with 3 ml of non-ionic surfactants at 0.5% (weight/volume) in H2O/isopropanol (90/10 weight/volume).
The duplicate plates were incubated for 30 minutes at room temperature on a rocker table and then emptied. One plate was tapped out and then allowed to dry at room temperature in a hood. It was then rinsed 5× with dI H2O. The second plate was not allowed to dry, but instead was immediately rinsed 5× with H2O. The plates were then tested for protein binding by filling each well with 0.5 ml of IgG (horse) at 10 μg/ml in PBS buffer and incubating for 30 minutes on a rocker table at room temperature. The plates were then rinsed with dI H2O and stained overnight with colloidal Au.

Experiment [1] deals with GAM-IgG-HRP (goat-anti-mouse-IgG-horseradish peroxidase enzyme labeled antibody). The experiment in a line: Bound enzyme labeled antibody on strips exposed to aqueous surfactant, rinsed or not rinsed, ABTS readout. Conditions: 0.1% surfactant in H2O/isopropanol (95/5), not dried. The protocol:
Medium binding (catalog #2587) and high binding (catalog #2581) polystyrene 96-well plates (8-well strips) manufactured by Corning Costar were used as follows. […] Strips were incubated for 30 minutes at room temperature on a rocker table. Strips were then emptied and tapped out. […] Immediately following this procedure, each well was aliquoted 0.10 ml of GAM-IgG-HRP (goat-anti-mouse-IgG-horseradish peroxidase enzyme labeled antibody; Kirkegaard and Perry, Gaithersburg, Md., Catalog #074-1806) at 1.0 μg/ml in PBS buffer pH=7.4). Strips were incubated for one hour at room temperature on a rocker table. Strips were then rinsed 5× with PBS buffer containing 0.02% Tween-20 followed by post rinsing with H2O. […] Absorbance at 405 nm was measured on a Cambridge Technologies #7520 Plate Reader.

A further experiment has as its system IgG. The experiment in a line: Coating durability using water washes, IgG binding by colloidal gold. The gist of the method: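 24-well polystyrene plates coated with surfactants; durability tested by water washes on a rocker. IgG incubated 30 minutes at 23° C. with rocking, then rinsed 3× with water.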
Another experiment deals with BSA. The experiment can be described thus: Polymer blends molded into petri dishes, BSA binding by colloidal gold. Conditions: blended at 5% into polypropylene; silver enhancer.
For a further experiment, the system named is Fetal Bovine Serum (FBS). The experiment in a line: Polymer blends molded into petri dishes, FBS protein binding by colloidal gold. To be noted: blended at 5% into polypropylene; silver enhancer.

Method for BSA: (§1) Low binding non-ionic surfactant molecules were blended at 5% (except as noted in Table 13) into a base polymer using a twin screw extruder, then injection molded into the shape of 35 mm petri dishes. Proteins tested were BSA and Fetal Bovine Serum (FBS). Protein binding was determined using a colloidal gold staining procedure as described above. In the case of the polypropylene and EVA blends, a silver enhancer was used (Sigma Chem. Co., St, Louis, Mo., Kit #SE-100).
Method for Fetal Bovine Serum (FBS): as §1

For the compound `CCCCCCCCCCCCCCCCCC(=O)OCC(O)CO` (centres unmarked) [GLYCEROL MONO-STEARATE], the “protein binding of in-mold coated part” value with IgG protein is given as “low protein binding”.

With PEO(20) SORBITOL MONO-LAURATE, the “MDCK Attachment” value in the experiment on MDCK cells was “None”. In addition, the “Visual Color Upon Protein Staining” value in the experiment on bound protein is recorded as “None”. Moreover, in the experiment on IgG (horse) (dried, then rinsed 5x), the “Absorbance (550 nm) Dried before H2O rinse” value is 0.14-0.16. Further, the “Absorbance (550 nm) H2O rinsed before drying” value in the experiment with IgG (horse) (not dried, rinsed 5x immediately) was 0.13-0.16. Moreover, in experiment [1] (not rinsed), the “Absorbance (405 nm) High Binding Polystyrene No Rinse” value stood at 0.00 and the “Absorbance (405 nm) Medium Binding Polystyrene No Rinse” value was 0.00. Further, in experiment [1] (rinsed 5x with dI H2O), the “Absorbance (405 nm) High Binding Polystyrene Rinsed” value worked out at 2.00 and the “Absorbance (405 nm) Medium Binding Polystyrene Rinsed” value is given as 1.90. In addition, in the experiment with IgG (coated polystyrene, no water wash), the “Absorbance (550 nm) Initial” value stood at 0.00. In the experiment with IgG (dI H2O wash 1 time, 1 hr, 23° C.), the “Absorbance (550 nm) 1 Time 1 hr 23° C.” value is listed as 0.02. For the same compound, the “Absorbance (550 nm) 1 Time 24 hr 23° C.” value in the experiment with IgG (dI H2O wash 1 time, 24 hr, 23° C.) came to 0.05. In addition, the “Absorbance (550 nm) 1 Time 24 hr 37° C.” value with IgG (dI H2O wash 1 time, 24 hr, 37° C.) amounted to 0.10. The “Absorbance (550 nm) 1 Time 24 hr 70° C.” value in the experiment on IgG (dI H2O wash 1 time, 24 hr, 70° C.) worked out at 0.10. The “Absorbance (550 nm) 6 Times 30 min each 23° C.” value with IgG (dI H2O wash 6 times, 30 min each, 23° C.) was 0.10. In the experiment on BSA, the “Bound Protein Absorbance (550 nm) BSA” value worked out at 0.153. Besides, the “Bound Protein Absorbance (550 nm) FBS” value with Fetal Bovine Serum (FBS) is listed as 0.270.
